Experimental findings from US9273028B2, “Heterocyclic tyrosine kinase inhibitors” (Biogen MA Inc., priority 2010, dated 2016) are described below.

The assay concerns the target T1, BTK (Homo sapiens, UniProt Q06187).
T1 construct: purchased Upstate 14-552
The experiment in a line: In vitro BTK kinase assay (BTK-POLYGAT-LS). It is filed as biochemical. The note with it: IC50 (10 uM ATP). As to the method: In vitro BTK Kinase Assay
The purpose of the BTK in vitro assay is to determine compound potency against BTK through the measurement of IC50. […] For a typical assay, a 24 μL aliquot of a ATP/peptide master mix (final concentration; ATP 10 μM, polyGAT 100 nM) in kinase buffer (10 mM Tris-HCl pH 7.5, 10 mM MgCl2, 200 μM Na3PO4, 5 mM DTT, 0.01% Triton X-100, and 0.2 mg/ml casein) is added to each well. […] The assay is incubated for 30 minutes before being stopped with 28 μL of a 50 mM EDTA solution. […] The plate is covered and incubated for 45 minutes at room temperature.

Structures are written as SMILES.

T1 sequence (Q06187 whole entry): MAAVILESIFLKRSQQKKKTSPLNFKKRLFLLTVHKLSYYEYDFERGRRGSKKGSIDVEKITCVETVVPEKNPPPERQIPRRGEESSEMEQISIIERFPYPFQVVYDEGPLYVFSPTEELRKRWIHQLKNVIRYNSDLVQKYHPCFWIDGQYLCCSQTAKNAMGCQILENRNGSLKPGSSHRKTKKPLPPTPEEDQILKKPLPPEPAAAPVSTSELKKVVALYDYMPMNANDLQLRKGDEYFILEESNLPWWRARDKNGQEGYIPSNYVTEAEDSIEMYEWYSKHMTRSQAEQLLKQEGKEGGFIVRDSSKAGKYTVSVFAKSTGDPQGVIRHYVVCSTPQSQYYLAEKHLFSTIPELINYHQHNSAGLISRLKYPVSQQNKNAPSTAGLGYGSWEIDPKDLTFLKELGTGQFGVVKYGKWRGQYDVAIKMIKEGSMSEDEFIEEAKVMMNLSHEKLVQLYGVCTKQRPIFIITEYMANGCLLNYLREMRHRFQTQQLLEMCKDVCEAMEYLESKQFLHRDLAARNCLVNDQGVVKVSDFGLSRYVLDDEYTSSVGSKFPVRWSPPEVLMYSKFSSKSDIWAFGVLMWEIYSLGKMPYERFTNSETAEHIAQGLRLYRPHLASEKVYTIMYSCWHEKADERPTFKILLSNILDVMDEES

Molecule `CCC1C(Nc2ncnc(N)c2F)CCCN1C(=O)CNc1cc(F)cc(Cl)c1` (centres unmarked) [Compound 5] had an IC50 of 1000 to 10000 nM.

Take `O=CNc1cnc(Br)cc1N[C@H]1CCCN(C(=O)CN(C=O)c2cc(Cl)cc(Cl)c2)C1` [Compound 121]: the IC50 was more than 10000 nM.

Take `O=C(CNC1CCCCC1)N1CCC[C@H](Nc2ncnc3[nH]ccc23)C1` [Compound 162]: the IC50 was more than 10000 nM.

Consider `C[C@H]1[C@@H](Nc2ncnc3[nH]ncc23)CCCN1C(=O)CNc1cc(F)cc(Cl)c1` [Compound 27], for which the IC50 lay within 100 to 999 nM.

`CC(C)N(c1ncnc2[nH]ccc12)C1CCCN(C(=O)CNc2cc(Cl)cc(Cl)c2)C1` (centres unmarked) [Compound 84]: the IC50 was in the range of 100 to 999 nM.

Molecule `O=C(CNc1cc(Cl)cc(Cl)c1)N1CC(Nc2ncnc3[nH]ccc23)Cc2ccccc21` (centres unmarked) [Compound 190] registered an IC50 of 100 to 999 nM.

Turning to `O=C(CNc1cc(Cl)cc(Cl)c1)N1CCC[C@@H](Nc2c(-c3ccc(C(=O)N4CCC(O)CC4)cc3)cnc3[nH]ccc23)C1` [Compound 2], the IC50 is less than 100 nM.

Molecule `O=C1C(Nc2cc(F)cc(Cl)c2)CC2CCC(Nc3ncnc4[nH]ccc34)CN12` (centres unmarked) [Compound 53] displayed an IC50 of 1000 to 10000 nM.

On to `O=C(CNc1cc(Cl)cc(Cl)c1)N1C[C@@H](Nc2ncnc3[nH]ccc23)C[C@@H](C(F)(F)F)C1` [Compound 122], for which the IC50 fell in the range of 100 to 999 nM.

Turning to `O=C(CNc1ccccc1C(F)(F)F)N1CCC[C@H](Nc2ncnc3[nH]ncc23)C1` [Compound 195], the IC50 is more than 10000 nM.

In turn, `C[C@@H](Nc1cc(Cl)cc(Cl)c1)C(=O)N1CCC2CCN(c3ncnc4[nH]ccc34)C2C1` (some centres unmarked) [Compound 56] yielded a half-inhibitory concentration (IC50) of less than 100 nM.

With `CC1CCCC(NCC(=O)N2CCC[C@H](Nc3ncnc4[nH]ccc34)C2)C1` (some centres unmarked) [Compound 117], the IC50 was more than 10000 nM.

Consider `CCCN(c1ncnc2[nH]ccc12)[C@H]1CCCN(C(=O)CNc2cc(Cl)cc(Cl)c2)C1` [Compound 118], for which the half-maximal inhibitory concentration (IC50) is more than 10000 nM.

In the case of `CC1C(N(C)c2ncnc(N)c2F)CCCN1C(=O)CNc1cc(Cl)cc(Cl)c1` (centres unmarked) [Compound 49], the IC50 is less than 100 nM.

For `O=C(CNc1cc(Cl)cc(Cl)c1)N1CCC[C@H](N(CCc2ccccc2)c2ncnc3[nH]ccc23)C1` [Compound 119], the IC50 was more than 10000 nM.

The molecule `CCC1C(Nc2ncnc3[nH]ccc23)CCCN1C(=O)CNc1cc(F)cc(Cl)c1` (centres unmarked) [Compound 7] came in with an IC50 of 100 to 999 nM.

In turn, `CN(c1ncnc2[nH]ccc12)C1CCCN(C(=O)CNc2ccccc2)C1C(F)(F)F` (centres unmarked) [Compound 15] displayed an IC50 of less than 100 nM.

`NC(=O)c1c(N)ncnc1NC1CCCN(C(=O)CNc2cc(Cl)cc(Cl)c2)C1` (centres unmarked) [Compound 82] yielded a 50% inhibitory concentration (IC50) of more than 10000 nM.

As to `CN(c1ncnc2[nH]ccc12)[C@H]1CCCN(C(=O)CNc2cc(Cl)cc(C(F)(F)F)c2)C1` [Compound 142], the IC50 is 100 to 999 nM.

As for `C[C@@H]1C[C@@H]2CCN(C(=O)CNc3cc(Cl)cc(Cl)c3)C[C@@H]2N1c1ncnc2[nH]ccc12` [Compound 46], the IC50 is less than 100 nM.

For `CN(c1cc(N)ncn1)[C@H]1CCCN(C(=O)CNc2cc(Cl)cc(Cl)c2)C1` [Compound 144], the IC50 is more than 10000 nM.

For the molecule `O=C(O)CN(c1ncnc2[nH]ccc12)[C@@H]1CCCN(C(=O)CNc2cc(Cl)cc(Cl)c2)C1` [Compound 36], the IC50 was 1000 to 10000 nM.

Molecule `O=C(CNc1cc(Cl)cc(Cl)c1)N1CCC2CCN(c3ncnc4[nH]cnc34)C2C1` (centres unmarked) [Compound 111] registered an IC50 of less than 100 nM.

As for `O=C(CNc1ccccc1Cl)N1CCC[C@H](Nc2ncnc3[nH]ccc23)C1` [Compound 199], the IC50 was more than 10000 nM.

In turn, `O=C([C@H](Nc1cc(Cl)cc(Cl)c1)C1CC1)N1CCC[C@@H](Nc2ncnc3[nH]ccc23)C1` [Compound 207] registered an IC50 of 100 to 999 nM.

For the molecule `Nc1nccc(N[C@H]2CCCN(C(=O)CNc3cc(Cl)cc(Cl)c3)C2)n1` [Compound 164], the IC50 was more than 10000 nM.

`O=C(CNc1cc(Cl)cc(Cl)c1)N1CCCC(N(CCc2ccccc2)c2ncnc3[nH]ccc23)C1` (centres unmarked) [Compound 97]: the IC50 is more than 10000 nM.

The molecule `O=C(CNc1cc(Cl)cc(Cl)c1)N1CCCC(Nc2ncnc3[nH]ccc23)C1C(F)(F)F` (centres unmarked) [Compound 19] returned an IC50 of less than 100 nM.

In the case of `CC1CC(N(C)c2ncnc3[nH]ncc23)CN(C(=O)CNc2cc(Cl)cc(Cl)c2)C1` (centres unmarked) [Compound 87], the IC50 was less than 100 nM.

Molecule `O=C(CNc1cc(Cl)cc(Cl)c1)N1CCOCC(Nc2ncnc3[nH]cnc23)C1` (centres unmarked) [Compound 50] showed an IC50 of 100 to 999 nM.

In the case of `CC1C(Nc2ncnc3[nH]ccc23)CCCN1C(=O)CNc1ccccc1S(=O)(=O)c1ccccc1` (centres unmarked) [Compound 75], the IC50 is less than 100 nM.

In turn, `C[C@H]1[C@H](Nc2ncnc3[nH]ncc23)CCCN1C(=O)CNc1cc(F)cc(Cl)c1` [Compound 26] registered an IC50 of 100 to 999 nM.

The molecule `O=C(CNc1cc(Cl)cc(C(F)(F)F)c1)N1CCCC(Nc2ncnc3[nH]ccc23)C1C(F)(F)F` (centres unmarked) [Compound 17] displayed an IC50 of less than 100 nM.

In turn, `CC1C(Nc2ncnc3[nH]ccc23)CCCN1C(=O)CNc1ccccc1S(=O)(=O)C1CCCC1` (centres unmarked) [Compound 73] showed an IC50 of less than 100 nM.

In the case of `O=C(CNc1cc(Cl)cc(Cl)c1)N1CC(Nc2ncnc3[nH]ncc23)Cc2ccccc21` (centres unmarked) [Compound 191], the IC50 was in the range of 100 to 999 nM.

`O=C(CNc1cc(Cl)cc(Cl)c1)N1CCC[C@@H](Nc2ncnc3[nH]cnc23)C1` [Compound 10] registered an IC50 of 1000 to 10000 nM.

`CN(c1ncnc2[nH]ccc12)C1CC2CC1N(C(=O)CNc1cc(Cl)cc(Cl)c1)C2` (centres unmarked) [Compound 163] yielded an IC50 of 1000 to 10000 nM.

For the molecule `O=C(CNc1ccccc1S(=O)(=O)N1CCCCC1)N1CCC[C@H](Nc2ncnc3[nH]ccc23)C1` [Compound 138], the IC50 is more than 10000 nM.

Molecule `O=C(CNc1cc(Cl)cc(Cl)c1)N1CCCC(N(CCN2CCOCC2)c2ncnc3[nH]ccc23)C1` (centres unmarked) [Compound 86] showed an IC50 of 100 to 999 nM.

In turn, `CN(c1ncnc2[nH]ccc12)C1CCCN(C(=O)CNc2cccc(Cl)c2)C1C(F)(F)F` (centres unmarked) [Compound 16] showed an IC50 of less than 100 nM.

As to `O=C(CNc1ccccc1F)N1CCC[C@H](Nc2ncnc3[nH]ncc23)C1` [Compound 203], the IC50 was more than 10000 nM.

As to `O=C(CNc1cc(Cl)cc(C(F)(F)F)c1)N1CCC[C@H](Nc2ncnc3[nH]ncc23)C1` [Compound 178], the IC50 was 1000 to 10000 nM.

For the molecule `C[C@H]1[C@H](Nc2ncnc3[nH]ncc23)CCCN1C(=O)CNc1cc(Cl)cc(Cl)c1` [Compound 30], the IC50 is 100 to 999 nM.

Consider `Nc1cc(N[C@H]2CCCN(C(=O)CNc3cc(Cl)cc(Cl)c3)C2)ncn1` [Compound 133], for which the IC50 was 1000 to 10000 nM.

A word on the IC50: it is the concentration needed to halve the response being measured.
